{"source": "patent US5436137A", "about": "“DNA sequence which encodes a peptide capable of promoting acrosome reaction” (Oregon Regional Primate Research Center, priority 1993, dated 1995)", "key": {"monkey sperm": {"test_system": "monkey sperm", "test": "acrosome reaction in capacitated monkey sperm (acrosome specific monoclonal antibody, FITC fluorescence)", "format": "cell-based", "settings": "bombesin at a concentration as low as 5 nM, present during 60 minutes capacitation, FIG. 5", "protocol": "For monkeys, sperm was collected, washed twice in balanced salts, resuspended in lactate/bicarbonate and dibutyryl cAMP, and then incubated for 60 minutes. […] See Wolf, D. P. et al. Mol. Reprod. Dev. 27:261-280 (1990); Lanzendorf, S. E. et al. Mol. Reprod. Dev. 25:61-66 (1990); and Wolf D. P. et al. Biol. Reprod. 41:335-346 (1989). All of these three publications are hereby incorporated by reference.\n(§1) To measure the effects of bombesin on the acrosome reaction, capacitation was conducted in the presence or absence of bombesin. After incubation, samples of sperm were removed to determine the percentage of sperm which had undergone the acrosome reaction as measured with an acrosome specific monoclonal antibody and FITC fluorescence [see Wolf, D. P. Am. J. Reprod. Immunol. 20:106-113 (1989), which is hereby incorporated by reference]."}, "human sperm": {"test_system": "human sperm", "test": "acrosome reaction in capacitated human sperm (acrosome specific monoclonal antibody, FITC fluorescence)", "format": "cell-based", "settings": "bombesin at a concentration as low as 5 nM, added after overnight capacitation, FIG. 5", "protocol": "as §1\nFor human sperm, capacitation was achieved by overnight incubation of sperm in balanced salt and 0.3% bovine serum albumin, after which bombesin was added to induce the acrosome reaction."}}, "data": [{"smiles": "CSCC[C@H](NC(=O)[C@H](CC(C)C)NC(=O)[C@H](Cc1cnc[nH]1)NC(=O)CNC(=O)[C@@H](NC(=O)[C@H](C)NC(=O)[C@H](Cc1c[nH]c2ccccc12)NC(=O)[C@H](CCC(N)=O)NC(=O)[C@H](CC(N)=O)NC(=O)CNC(=O)[C@H](CC(C)C)NC(=O)[C@H](CCCN=C(N)N)NC(=O)[C@H](CCC(N)=O)NC(=O)[C@@H]1CCC(=O)N1)C(C)C)C(N)=O", "note": "[bombesin]", "values": [{"measurement": "increase in the acrosome reaction", "setting": "monkey sperm", "result": 2, "unit": "fold"}, {"measurement": "increase in the acrosome reaction", "setting": "human sperm", "result": 2, "unit": "fold"}]}]}
